According to patent publication US11584712B2, “Alkylamine-substituted perthiocarbamates as dual precursors to hydropersulfide and carbonyl sulfide” (The Johns Hopkins University, priority 2020, dated 2023):

What was measured:
[1] = Kinetics of RSSH release from precursors monitored by HPLC (HPE-IAM trapping); type: physicochemical; details: precursor 100 μM, HPE-IAM 5 mM, pH 7.4 phosphate buffer with DTPA, 37° C.
Procedure: (§1) Precursors 7a-d were dissolved in DMSO to afford 10 mM stock solutions. HPE-IAM was dissolved in DMSO to obtain a 100 mM stock solution. […] This solution was pre-incubated for 10 min at 37° C. and then precursor 7a-d (30 μL, 10 mM) were independently added into the mixture. The resulting solution was incubated at 37° C. At different time points, an aliquot of 200 μL was taken and quenched with 200 μL […] solution. These samples were stored at 0° C. until HPLC analysis was performed. The sample (20 μL) was injected into a high-performance liquid chromatography (HPLC) equipped with Phenomenex C-18 reverse phase column (250 mm×4.6 mm, 5 μm). HPLC Method: mobile phase A (H2O) and mobile phase B (ACN), flow rate: 1 mL/min, run time: 20 min, the gradient elution method: 10% to 40% B from 0 to 12 min, 40% to 80% B from 12 to 20 min. The elution was monitored by a UV detector at 275 nm. A calibration curve was generated using RSS-HPE-AM 9 to quantify RSSH generation from 7a-d.
as §1, with “by a variable UV detector” for “by a UV detector”

[2] = RSSH generation in the presence of N-acetyl cysteine by UPLC-MS; type: physicochemical; details: precursor 100 μM, NAC 500 μM, pH 7.4 ammonium bicarbonate buffer with DTPA, 37° C.
Procedure: […] The resulting mixture was incubated at 37° C. An aliquot (200 μL) of reaction mixture was withdrawn at specified time points and quenched with 1% formic acid (200 μL). 3-Amino-benzoic acid (50 μM) was added to each sample as internal standard prior to UPLC-MS analysis. To quantify 2a-d generated from these precursors, a calibration curve for each individual cyclic urea with known concentrations was independently generated.
[…] The resulting mixture was incubated at 37° C. An aliquot ([…]) of reaction mixture was withdrawn at specified time points and quenched with 1% formic acid (200 μL). 3-amino-benzoic acid (50 μM) was added to each sample as internal standard prior to UPLC-MS analysis. To quantify 2a-d generated from these precursors, the calibration curve of each individual cyclic urea with known concentrations was independently generated.

[3] = COS release using membrane inlet mass spectrometry (MIMS); type: physicochemical; details: precursor 50 μM, NAC 0.25 mM (5 equiv.), pH 7.4 phosphate buffer saline with DTPA, 37° C.
Procedure: (§2) COS was analyzed using a Hiden HPR-40 MIMS system with a sample cell and membrane probe that have been optimized to detect gases dissolved in aqueous solution as described previously. Cline et al., 2011. A stock solution of N-acetyl-cysteine (25 mM) was prepared in DI water. RSSH precursor stock solutions (5 mM) were prepared in DMSO. These solutions were degassed by purging with nitrogen for 10 min before COS release analysis. Typically, 20 mL phosphate buffer solution (10 mM) was added to the sample cell, degassed and purged with a continuous flow of argon for 15 min. N-acetyl cysteine (200 μL, 25 mM) and RSSH precursor (200 μL, 5 mM) were then injected using a gas tight syringe and ion current at m/z 60 (COS^+) were collected for 2 h (source pressure was approximately 1×10^−7 to 5×10^−7 Torr).
as §2, with “(COS*)” for “(COS^+)”

[4] = RSSH generation and quantification of cyclic ureas by UPLC-MS with HPE-IAM or NEM trap; type: physicochemical
Procedure: Precursor 1a was dissolved in DMSO to afford a 1 mM stock solution. Similarly, HPE-IAM and N-ethyl maleimide (NEM) were independently dissolved in DMSO to obtain 50 mM stock solutions. To a 20 mL scintillation vial, HPE-IAM or NEM (30 μL, 50 mM) was added in pH 7.4 ammonium bicarbonate buffer (2.94 mL) containing the DTPA (100 μM). The resulting solution was pre-incubated at 37° C. for 10 min. Precursor 1a (30 μL, 1 mM) was then added into the mixture and incubated for 15 min at 37° C. An aliquot of the reaction mixture (500 μL) was withdrawn, 4-hydroxyphenylacetamide (10 μM) was added as internal standard, and analyzed using UPLC-MS as follows: Mobile phase: 0-1 min 90% water+0% ACN+10% formic acid (0.1%); 1-7.5 min gradient up to 10% water+80% ACN+10% formic acid (0.1%); 7.5-8.4 min 10% water+80% ACN+10% formic acid (0.1%); 8.4-8.5 min gradient up to 90% water+0% ACN+10% formic acid (0.1%), 8.5-10 min 90% water+0% ACN+10% formic acid (0.1%). Flow rate=0.3 mL/min. […] These studies were conducted at least in triplicate and representative spectra are presented.
Precursors 7a-d (10 μM) were independently incubated with HPE-IAM (500 μM) in pH 7.4 ammonium bicarbonate buffer (50 mM) containing DTPA (100 μM) at 37° C. The reaction mixture (500 μL) was analyzed using UPLC-MS. To quantify 2a-d generated from these precursors, a calibration curve of each individual cyclic urea with known concentrations was independently generated.
Precursor 1a was dissolved in DMSO to afford a 1 mM stock solution. Similarly, HPE-IAM was dissolved in DMSO to obtain a 50 mM stock solution. To a 20 mL scintillation vial, HPE-IAM (30 μL, 50 mM) was added in pH 7.4 ammonium bicarbonate buffer (2.94 mL) containing the DTPA (100 μM). The resulting solution was pre-incubated at 37° C. for 10 min. Precursor 1a (30 μL, 1 mM) was then added into the mixture and incubated for 15 min at 37° C. An aliquot of the reaction mixture (500 μL) was withdrawn and analyzed using UPLC-MS as follows: Mobile phase: 0-1 min 90% water+0% ACN+10% formic acid (0.1%); 1-7.5 min gradient up to 10% water+80% ACN+10% formic acid (0.1%); 7.5-8.4 min 10% water+80% ACN+10% formic acid (0.1%); 8.4-8.5 min gradient up to 90% water+0% ACN+10% formic acid (0.1%), 8.5-10 min 90% water+0% ACN+10% formic acid (0.1%). Flow rate=0.3 mL/min. The mass signals for product of RSSH trapping with HPE-IAM were obtained via deconvolution using MassLynx 4.1 software. These studies were conducted at least in triplicate and representative spectra are presented.
Precursors 7a-d (10 μM) were independently incubated with HPE-IAM (500 μM) in pH 7.4 ammonium bicarbonate buffer (50 mM) containing DTPA (100 μM) at 37° C. This reaction mixture was analyzed by UPLC-MS as follows: Mobile phase: 0-1 min 90% water+0% ACN+10% formic acid (0.1%); 1-7.5 min gradient up to 10% water+80% ACN+10% formic acid (0.1%); 7.5-8.4 min 10% water+80% ACN+10% formic acid (0.1%); 8.4-8.5 min gradient up to 90% water+0% ACN+10% formic acid (0.1%), 8.5-10 min 90% water+0% ACN+10% formic acid (0.1%). Flow rate=0.3 mL/min. To quantify 2a-d generated from these precursors, a calibration curve of each individual cyclic urea with known concentrations was independently generated.

[5] = system: H9c2 cells; assay: Cytotoxicity study with SYTOX Green nucleic acid stain; type: cell-based, rat; details: 24 h exposure, 0-150 μM
Procedure: H9c2(2-1) embryonic rat heart myoblasts were obtained from the American Type Culture Collection. Cells were grown in Dulbecco's […] (DMEM), supplemented with fetal bovine serum (FBS) 10%, penicillin 100 U/mL and streptomycin 100 μg/mL. They were propagated in T75-flasks, split before reaching 70-80% confluence (usually every day or every second day), and used within 11 passages. Cells were passaged to tissue culture treated 96-well microtiter plates at the specified density in 180 μL volumes and incubated for 24 h.
Cells were seeded at a density of 1×10^4 cells/well. […] Then, 100 μL of media containing 3 μM SYTOX™ Green nucleic acid stain (Invitrogen) was added and the cells were incubated for 2 h before fluorescence readings were obtained at 485Ex/538Em (Step 1). Finally, an additional 100 μL of media containing 3 μM SYTOX™ and 0.2% Triton X-100 was added in order to permeabilize all cells and incubated for 1 h before fluorescence values measured (Step 2). The relative % cells surviving was calculated as a 100% minus the ratio of the fluorescence value of Step 1 over Step 2 (% cells surviving=100%−(FL538 (Step 1)/FL538(Step 2)).
Cells were seeded at a density of 1×10^4 cells/well. […] The relative % cells surviving was calculated as a 100% minus the ratio of the fluorescence value of Step 1 over Step 2 (% cells surviving=100%−(FL538 (Step 1)/FL538(Step 2)).

COC(=O)C(NC(C)=O)C(C)(C)SSC(=O)N(C)CCCN (stereo not shown) [Precursor 7d, 3-(((3-acetamido-4-methoxy-2-methyl-4-oxobutan-2-yl)disulfannecarbonyl)(methyl)amino)propan-1-aminium]
Hydropersulfide Yield (%) [1]: 82 ± 1% | Byproduct % (yield of cyclic urea 2a-d) [2]: 5.9 ± 0.4% | COS release (m/z=60 signal) [3]: produce mainly COS

CNCCN(C)C(=O)SSCC(NC(C)=O)C(=O)OC (stereo not shown) [Precursor 1a, 2-(((2-Acetamido-3-methoxy-3-oxopropyl)disulfannecarbonyl)(methyl)amino)-N-methylethan-1-aminium]
yield of byproduct 2a ([4]; NEM 50 equiv., pH 7.4 buffer): 74% | yield of cyclic urea byproduct ([4]; precursor 10 μM, HPE-IAM 500 μM (50 equiv.), pH 7.4 ammonium bicarbonate buffer, 37° C.): 52% | byproduct 2a formation ([4]; precursor 10 μM, NEM 500 μM, pH 7.4 ammonium bicarbonate buffer, 37° C., 15 min): 7.4 ± 0.2 µM

CN1CCNC1=O [byproduct 2b, 1-methylimidazolidin-2-one]
cytotoxicity toward H9c2 cells [5]: no toxicity
